Assay results taken from patent publication US20100028266A1, “Composition and methods for treating allergic response” (Alpha Synergy Development. Inc., priority 2008, published 2010).

Tests used:
[1] = tested on: eyes of a patient with an ocular condition (baseline redness 4/4); conditions: brimonidine at 0.01%, 0.02%, […] (left eye) compared with tetrahydrozoline 0.05%, oxymetazoline […], naphazoline […] (right eye)
Source text: In an average clinical situation, baseline redness is at 1-1.5/4.

[2] = tested on: patients with chronic red eyes; experiment: Example 5: chronic red eyes, one eye each treatment, patient satisfaction assessment; format: in vivo, human
Procedure: The treatment was through drops twice a day for three to five weeks. At the end, patient satisfaction assessment was conducted.

[3] = tested on: eyes of a patient with an ocular condition of moderate hyperemia; experiment: FIGS. 5A-C: reversal of pre-induced rebound hyperemia; format: in vivo, human; conditions: brimonidine at […] given after VISINE Original
Source text: FIG. 5A is a baseline visual appearance of two eyes of a patient with an ocular condition.

Brc1c(N=C2NCCN2)ccc2nccnc12.O=C(O)C(O)C(O)C(=O)O [brimonidine, 5-bromo-6-(2-imidazolidinylideneamino)quinoxaline L-tartrate]
scleral whitening brightening effects [1]: significant scleral whitening brightening effects | patients who preferred the treatment ([2]; brimonidine at […] in one eye, Naphcon-A in the other, twice a day for three to five weeks): 42% | patient-reported redness ([2]; brimonidine at […], drops twice a day for three to five weeks): All patients reported reduced redness | effect on VISINE Original induced rebound hyperemia, right eye [3]: reversing the VISINE Original® induced rebound hyperemia
